The source of these data is patent publication US12152038B2, “Vasopressin receptor antagonists and products and methods related thereto” (Neumora Therapeutics, Inc., priority 2017, dated 2024).

The target of assay [1] is T1, human Arginine Vasopressin Receptor 1b (AVPR1b) (Homo sapiens, UniProt P47901).
T1 construct: expressed in transfected cells; host or cells: CHO (CHO-AVPR1b, kept under G418 selection)
T1 sequence (P47901 1-424): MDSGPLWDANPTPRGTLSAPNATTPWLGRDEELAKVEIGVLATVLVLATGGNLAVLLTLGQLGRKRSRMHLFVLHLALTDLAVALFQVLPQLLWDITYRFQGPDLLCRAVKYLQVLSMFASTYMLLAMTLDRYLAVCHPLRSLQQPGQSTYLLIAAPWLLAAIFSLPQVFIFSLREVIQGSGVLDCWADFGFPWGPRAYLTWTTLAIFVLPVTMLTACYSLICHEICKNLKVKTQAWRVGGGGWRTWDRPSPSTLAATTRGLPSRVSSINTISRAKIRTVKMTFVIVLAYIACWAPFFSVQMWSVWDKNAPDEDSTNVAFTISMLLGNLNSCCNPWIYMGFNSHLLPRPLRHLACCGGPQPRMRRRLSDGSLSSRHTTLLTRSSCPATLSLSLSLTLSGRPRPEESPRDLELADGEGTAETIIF
Put plainly: Vasopressin V1b receptor antagonist assay (FLIPR calcium, CHO-AVPR1b cells). The assay is classed as cell-based. As for the experimental part: The purpose of the assay was to determine the inhibitory effect of synthesized compounds on the Vasopressin V1b receptor. The assay was performed in Chinese Hamster Ovary (CHO) cells expressing the human Arginine Vasopressin Receptor 1b (AVPR1b). Arginine Vasopressin (AVP) evokes an increase in intracellular calcium in CHO-AVPR1b cells which is measured in a fluorescence assay on the FLIPR^TETRA using calcium sensitive dyes. Test compounds were assessed for their ability to affect the magnitude of the response to AVP, with antagonists showing a concentration-dependent reduction in the AVP-mediated fluorescence.
CHO-AVPR1b cells were maintained in routine culture in T175 Flasks at 37° C., 5% CO2. The growth medium consisted of Ham's F12 media supplemented with 10% v/v fetal bovine serum, 1× non-essential amino acids, and 0.4 mg/ml Geneticin G418.
(§1) Cells were harvested from T175 flasks when they were 80-90% confluent by first washing the cell monolayer with PBS and then dissociated using trypsin 0.05%/EDTA (3 mL for a T175 Flask). The flasks were incubated at room temperature until the cells detached. To the cell suspension, 10 ml of growth media was added and the cell density determined using the Vi-Cell automated cell counter. The cells were spun at 1000 rpm for 3 minutes, then the supernatant was carefully removed and discarded. The cell pellet was re-suspended at 6.0e^5 cells/ml in growth media. 25 μL of cells in growth media was dispensed into each well (15,000 cells per well) of a poly-D-lysine coated black, clear bottomed, 384-well plate. The plates were incubated at 37° C., 5% CO2 overnight.
(§2) At the start of each assay day, the potency of AVP was assessed and an EC80 concentration determined for subsequent compound profiling. Assays were performed using a two-step addition protocol on the FLIPR^TETRA; first addition of 5 μl of control or test compound at 10× final in assay buffer with 15 min incubation at 37° C., 5% CO2 followed by 10 μl of AVP at 6× final concentration in assay buffer. Changes in fluorescence were monitored for 3 min after both additions on the FLIPR^TETRA using 470-495 nm excitation and 515-575 nm emission wavelengths. The assay buffer consisted of HBSS (+Ca/+Mg) supplemented with 20 mM HEPES, and for the preparation of the AVP agonist only, 0.1% w/v bovine serum albumin. The assay was initiated by the removal of growth media from the cells and replacement with 45 μl of Calcium-6 dye (Molecular Devices) prepared at 1× in assay buffer. Cells were loaded with dye for 60-90 min at 37° C., 5% CO2 before initiation of the FLIPR^TETRA protocol. […] For compound profiling, test compounds were first serially diluted in DMSO (10-point curve, 1:3 dilutions) then diluted 33.3-fold in assay buffer prior to addition to the dye loaded cells on the FLIPR^TETRA. At the end of the incubation period 10 μl of AVP in assay buffer containing 0.1% BSA was added at the previously determined EC80 concentration.
In-plate controls for the assay included a Nelivaptan concentration-response curve as the reference V1b antagonist and an AVP concentration-response curve to confirm the reproducibility of the EC80 used for the compound challenge.

Assay [2] addresses T2, human Arginine Vasopressin Receptor 1a (AVPR1a) (Homo sapiens, UniProt P37288).
T2 construct: expressed in transfected cells; host or cells: CHO (CHO-AVPR1a, kept under G418 selection)
Put plainly: Vasopressin V1a receptor antagonist assay (FLIPR calcium, CHO-AVPR1a cells). It is filed as cell-based. The procedure:
The purpose of this assay was to determine the inhibitory effect of synthesized compounds on the Vasopressin V1a receptor. The assay was performed in Chinese Hamster Ovary (CHO) cells expressing the human Arginine Vasopressin Receptor 1a (AVPR1a). Arginine Vasopressin (AVP) evokes an increase in intracellular calcium in CHO-AVPR1a cells which is measured in a fluorescence assay on the FLIPR^TETRA using calcium sensitive dyes. Test compounds were assessed for their ability to affect the magnitude of the response to AVP, with antagonists showing a concentration-dependent reduction in the AVP-mediated fluorescence. Compounds were tested in duplicate in a 10-point, 1:3 dilution series starting at a nominal concentration of 3 μM in the assay.
CHO-AVPR1a cells were maintained in routine culture in T175 Flasks at 37° C., 5% CO2. The growth medium consists of Ham's F12 media supplemented with 10% v/v fetal bovine serum, 1× non-essential amino acids, and 0.4 mg/ml Geneticin G418.
as §1, with “On day one, cells were” for “Cells were”, “they are” for “they were”
as §2, with “period,” for “period”
In-plate controls for the assay included balovaptan and PF-184563 concentration-response curves as reference V1a antagonists, and an AVP concentration-response curve to confirm the reproducibility of the EC80 used for the compound challenge.

T2 sequence (P37288 whole entry): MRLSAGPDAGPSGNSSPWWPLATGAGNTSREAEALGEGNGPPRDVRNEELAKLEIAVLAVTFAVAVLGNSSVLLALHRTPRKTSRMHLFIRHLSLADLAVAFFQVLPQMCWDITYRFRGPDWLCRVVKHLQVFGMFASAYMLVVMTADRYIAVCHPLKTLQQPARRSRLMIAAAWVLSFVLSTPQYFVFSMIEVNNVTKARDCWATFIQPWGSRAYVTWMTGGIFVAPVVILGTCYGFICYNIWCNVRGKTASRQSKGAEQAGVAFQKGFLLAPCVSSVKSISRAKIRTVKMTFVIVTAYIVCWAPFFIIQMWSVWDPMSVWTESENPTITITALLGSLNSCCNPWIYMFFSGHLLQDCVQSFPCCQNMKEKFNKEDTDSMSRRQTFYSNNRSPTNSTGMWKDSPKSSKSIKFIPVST

In the case of `O=C(N1CC2(C1)CN(c1ncccc1F)C2)N1CCOc2cc(Cl)ccc21` [1-1, (7-chloro-2,3-dihydro-4H-benzo[b][1,4]oxazin-4-yl)(6-(3-fluoropyridin-2-yl)-2,6-diazaspiro[3.3]heptan-2-yl)methanone], the IC50 was at least 1000 nM in assay [1] and below 100 nM in assay [2].

On to `CC1COc2cc(Cl)ccc2N1C(=O)N1CC2(C1)CN(c1cc(=O)n(C)cn1)C2` (single isomer, unassigned) [20-14-A], for which, in assay [2], the IC50 is at least 1000 nM.

For the molecule `CC1COc2cc(Cl)ccc2N1C(=O)N1CC2(C1)CN(c1nn(C)c3ncccc13)C2` (single isomer, unassigned) [20-15-A], in assay [2], the IC50 fell in the range of 100 to 500 nM.

With `O=C(N1CC2(C1)CN(c1cc(C(F)F)ccn1)C2)N1CCOc2cc(Cl)ccc21` [1-80], the IC50 in assay [2] was below 100 nM.

Take `CC1COc2cc(Cl)ccc2N1C(=O)N1CC2(C1)CN(c1ncc(F)cn1)C2` (single isomer, unassigned) [18-2-A]: the 50% inhibitory concentration (IC50) in assay [2] is below 100 nM.

Turning to `CC1(O)CCN(C(=O)N2CC3(C2)CN(c2ccc(F)cn2)C3)c2ccc(Cl)cc21` (stereo not drawn) [15-1, (6-chloro-4-hydroxy-4-methyl-3,4-dihydroquinolin-1(2H)-yl)(6-(5-fluoropyridin-2-yl)-2,6-diazaspiro[3.3]heptan-2-yl)methanone], the IC50 in assay [2] was below 100 nM.

With `CCc1ccnc(N2CC3(CN(C(=O)N4c5ccc(Cl)cc5OCC4C)C3)C2)n1` (single isomer, unassigned) [18-5-A], the IC50 in assay [2] was at least 1000 nM.

Consider `COC1CCN(C(=O)N2CC3(C2)CN(c2ccc(F)cn2)C3)c2ccc(Cl)cc21` (stereo not drawn) [16-1, (6-chloro-4-methoxy-3,4-dihydroquinolin-1(2H)-yl)(6-(5-fluoropyridin-2-yl)-2,6-diazaspiro[3.3]heptan-2-yl)methanone], for which the IC50 in assay [2] is below 100 nM.

For the molecule `Cn1nccc1N1CC2(CN(C(=O)N3CCOc4cc(Cl)ccc43)C2)C1` [1-42], in assay [2], the IC50 fell in the range of 100 to 500 nM.

In the case of `CC1COc2cc(F)ccc2N1C(=O)N1CC2(C1)CN(c1ncccc1F)C2` (single isomer, unassigned) [1-67-B], in assay [2], the IC50 is at least 1000 nM.

As for `O=C(N1CC2(C1)CN(c1ccc(F)cn1)C2)N1CCSc2cc(Cl)ccc21` [8-15], in assay [2], the concentration for half-maximal inhibition (IC50) was below 100 nM.

On to `COc1cnc(N2CC3(CN(C(=O)N4CCOc5cc(Cl)ccc54)C3)C2)cn1` [1-23], for which the IC50 in assay [2] is below 100 nM.

Turning to `CC1COc2cc(F)ccc2N1C(=O)N1CC2(C1)CN(c1ccccn1)C2` (stereo not drawn) [1-66], the IC50 in assay [2] was below 100 nM.

For `CCC1COc2cc(F)ccc2N1C(=O)N1CC2(C1)CN(c1ccc(F)cn1)C2` (stereo not drawn) [1-56], in assay [2], the IC50 is below 100 nM.

Regarding `CS(=O)(=O)N1CC2(CN(C(=O)N3CCOc4cc(Cl)ccc43)C2)C1` [10-1, (7-chloro-2,3-dihydro-4H-benzo[b][1,4]oxazin-4-yl)(6-(methylsulfonyl)-2,6-diazaspiro[3.3]heptan-2-yl)methanone], the half-inhibitory concentration (IC50) in assay [2] is at least 1000 nM.

Turning to `CC1COc2cc(Cl)ccc2N1C(=O)N1CC2(C1)CN(c1ncccc1F)C2` (stereo not drawn) [1-57], the IC50 in assay [2] is below 100 nM.

`COc1ccc(N2CC3(CN(C(=O)N4CCOc5cc(Cl)ccc54)C3)C2)cn1` [8-1, (7-chloro-2,3-dihydro-4H-benzo[b][1,4]oxazin-4-yl)(6-(6-methoxypyridin-3-yl)-2,6-diazaspiro[3.3]heptan-2-yl)methanone]: the IC50 in assay [2] lay in the range of 100 to 500 nM.

Usually IC50 stands for the concentration at which inhibition is half-maximal.
